Test results taken from patent US8247211B2, “Glycopeptide antibiotics” (American Cyanamid Company, priority 2001, dated 2012).
Numbered stars: 1 amine (or outer) side, 2 acyl side, 3 side chain; on linkers, the order of the positions; unused ones are H or OH. Square brackets hold non-standard residues; d marks the D form. Peptide text beside a SMILES is read from it. ξ: configuration not given here. X1 = N=C1NCC(C(O)C(N[*:1])C(=O)[*:2])N1C1OC(CO)C(O)C(O)C1O; ξEnduracididine(βξ-OH,4'ξ) = N=C1NCC(C(O)C(N)C(=O)O)N1; Cha = N[CH](CC1CCCCC1)C(=O)O

Columns and labels:
[1] = tested on: Staphylococcus aureus-SMITH (GC 4543); test: Acute lethal infection in mice (ED50); format: in vivo; conditions: female CD-1 mice, intraperitoneal challenge, intravenous dose 30 min. after infection, 7 day survival ratios
Summary of the method: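 IP bacterial challenge, female CD-1 mice; inoculum lethal to untreated controls in 24-48 hr. IV dosing in saline or 5% dextrose 30 min post-infection, 5 mice/dose. ED50 from 7-day survival, 3 tests pooled.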

Escherichia coli = test: In vitro antibacterial evaluation: minimum inhibitory concentration (MIC), broth dilution method; format: cell-based; conditions: broth dilution, 18 hours at 35° C.
[2] = Anatomic pathology (heart and kidney histopathology) in mice; format: in vivo, CD-1 mice; conditions: 20 mg/kg intravenously daily for 9 days, microscopic histopathology on day 10
Summary of the method: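 Histopathology on H&E-stained, paraffin-embedded sections, subjectively scored (slight, mild, moderate, marked, severe) relative to untreated controls. Dosing: glycopeptide antibiotics 20 mg/kg intravenously once daily ×9 days in 20-day-old CD-1 mice, n=5 per group including vehicle.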

Staphylococcus sp. = test: In vitro antibacterial evaluation: minimum inhibitory concentration (MIC), broth dilution method; format: cell-based; conditions: broth dilution, 18 hours at 35° C.; for MIC Staphylococcus aureus-SMITH (GC 4543): strain SMITH GC 4543
Summary of the method: (§1)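 NCCLS M7-A2 broth dilution with Mueller-Hinton II, testing 64-0.06 μg/mL antibiotic against 5×10^5 CFU/mL inocula. Test strains include recent methicillin-, penicillin- or vancomycin-resistant clinical isolates. MIC is the lowest concentration preventing growth.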

Enterococcus sp. = test: as above; format: cell-based; conditions: broth dilution, 18 hours at 35° C.
Summary of the method: as §1

Streptococcus sp. = test: as above; format: cell-based; conditions: broth dilution, 18 hours at 35° C.
Summary of the method: as §1

[3] = Enterococcus faecalis (ATCC 29212)
[4] = Enterococcus faecalis (GC 2242)
[5] = Enterococcus faecalis (GC 2691)
[6] = Enterococcus faecalis (GC 3059)
[7] = Enterococcus faecalis (GC 4552)
[8] = Enterococcus faecalis (GC 4553)
[9] = Enterococcus faecalis (GC 4554)
[10] = Enterococcus faecalis (GC 6189)
[11] = Streptococcus agalactiae (GC 4564)
[12] = Streptococcus pneumoniae (ATCC 6301)
[13] = Streptococcus pneumoniae (GC 1894)
[14] = Streptococcus pneumoniae (GC 4565)
[15] = Streptococcus pyogenes (GC 4563)

Cc1ccc(Oc2cccc(-c3nc4cc(CC5NC(=O)C(C(C)c6ccccc6)NC(=O)CNC(=O)C(CO)NC(=O)C(C(O)C6CNC(=N)N6C6OC(CO)C(O)C(O)C6O)NC(=O)C(C(O)C6CNC(=N)N6)NC5=O)ccc4o3)c2)cc1 (stereo not shown) [Example 28]
4 µg/mL: MIC Staphylococcus aureus-SMITH (GC 4543) (Staphylococcus sp.) | MIC Enterococcus avium (GC 4558) (Enterococcus sp.; Enterococcus avium (GC 4558)) | MIC Enterococcus faecalis (GC 2242) (Enterococcus sp.; [4]) | MIC Enterococcus faecalis (GC 4553) (Enterococcus sp.; [8]) | MIC Enterococcus faecium (GC 4557) (Enterococcus sp.; Enterococcus faecium (GC 4557)) | MIC Enterococcus avium (GC 4558) (Enterococcus sp.) | MIC Enterococcus faecalis (GC 2242) (Enterococcus sp.) | MIC Enterococcus faecalis (GC 4553) (Enterococcus sp.) | MIC Enterococcus faecium (GC 4557) (Enterococcus sp.) | MIC Streptococcus agalactiae (GC 4564) (Streptococcus sp.; [11]) | MIC Streptococcus pneumoniae (ATCC 6301) (Streptococcus sp.; [12]) | MIC Streptococcus pneumoniae (GC 1894) (Streptococcus sp.; [13]) | MIC Streptococcus pneumoniae (GC 4565) (Streptococcus sp.; [14]) | MIC Streptococcus agalactiae (GC 4564) (Streptococcus sp.) | MIC Streptococcus pneumoniae (ATCC 6301) (Streptococcus sp.) | MIC Streptococcus pneumoniae (GC 1894) (Streptococcus sp.) | MIC Streptococcus pneumoniae (GC 4565) (Streptococcus sp.)
0: Anatomical Pathology (Day 10), Heart [2] | Anatomical Pathology (Day 10), Kidney [2]
8 µg/mL: MIC Escherichia coli (GC 4560) (Escherichia coli) | MIC Enterococcus faecalis (ATCC 29212) (Enterococcus sp.; [3]) | MIC Enterococcus faecalis (GC 2691) (Enterococcus sp.; [5]) | MIC Enterococcus faecalis (GC 3059) (Enterococcus sp.; [6]) | MIC Enterococcus faecalis (GC 4552) (Enterococcus sp.; [7]) | MIC Enterococcus faecalis (GC 4554) (Enterococcus sp.; [9]) | MIC Enterococcus faecalis (GC 6189) (Enterococcus sp.; [10]) | MIC Enterococcus faecium (GC 2243) (Enterococcus sp.; Enterococcus faecium (GC 2243)) | MIC Enterococcus faecium (GC 4556) (Enterococcus sp.; Enterococcus faecium (GC 4556)) | MIC Enterococcus faecalis (ATCC 29212) (Enterococcus sp.) | MIC Enterococcus faecalis (GC 2691) (Enterococcus sp.) | MIC Enterococcus faecalis (GC 3059) (Enterococcus sp.) | MIC Enterococcus faecalis (GC 4552) (Enterococcus sp.) | MIC Enterococcus faecalis (GC 4554) (Enterococcus sp.) | MIC Enterococcus faecalis (GC 6189) (Enterococcus sp.) | MIC Enterococcus faecium (GC 2243) (Enterococcus sp.) | MIC Enterococcus faecium (GC 4556) (Enterococcus sp.)
1 µg/mL: MIC Streptococcus pyogenes (GC 4563) (Streptococcus sp.; [15]) | MIC Streptococcus pyogenes (GC 4563) (Streptococcus sp.)
64 µg/mL: MIC Escherichia coli (ATCC 25922) (Escherichia coli) | MIC Escherichia coli (GC 4559) (Escherichia coli)
8 mg/kg: median effective dose (ED50), Staphylococcus aureus-SMITH (GC 4543) [1]

N=C1NCC(C(O)C2NC(=O)C(CC3CCCCC3)NC(=O)C(CC3CCCCC3)NC(=O)CNC(=O)C(CO)NC(=O)C(C(O)C3CNC(=N)N3C3OC(CO)C(O)C(O)C3O)NC2=O)N1 (stereo not drawn) [Example 52, Cyclo[3-cyclohexylalanyl-3-cyclohexylalanyl-3-(2-iminoimidazolidin-4-yl)seryl-3-(3-hexopyranosyl-2-iminoimidazolidin-4-yl)serylserylglycyl]] (cyclo(G[Cha][Cha][ξEnduracididine(βξ-OH,4'ξ)][X1]S); configuration not given here)
16 µg/mL: MIC Escherichia coli (GC 4560) (Escherichia coli) | MIC Staphylococcus aureus SMITH (GC 4543) (Staphylococcus sp.) | MIC Staphylococcus aureus-SMITH (GC 4543) (Staphylococcus sp.) | MIC Enterococcus faecalis (GC 4553) (Enterococcus sp.; [8]) | MIC Enterococcus faecium (GC 2243) (Enterococcus sp.; Enterococcus faecium (GC 2243)) | MIC Enterococcus faecalis (GC 4553) (Enterococcus sp.) | MIC Enterococcus faecium (GC 2243) (Enterococcus sp.) | MIC Streptococcus pneumoniae (GC 4565) (Streptococcus sp.; [14]) | MIC Streptococcus pneumoniae (GC 4565) (Streptococcus sp.)
0: Anatomical Pathology (Day 10), Heart [2]
+++: Anatomical Pathology (Day 10), Kidney [2]
4 µg/mL: MIC Coagulase Negative Staphylococcus (GC 4549) (Staphylococcus sp.) | MIC Staphylococcus haemolyticus (GC 4546) (Staphylococcus sp.)
8 µg/mL: MIC Coagulase Negative Staphylococcus (GC 4547) (Staphylococcus sp.) | MIC Coagulase Negative Staphylococcus (GC 4548) (Staphylococcus sp.) | MIC Coagulase Negative Staphylococcus (GC 4551) (Staphylococcus sp.) | MIC Enterococcus faecium (GC 4557) (Enterococcus sp.; Enterococcus faecium (GC 4557)) | MIC Enterococcus faecium (GC 4557) (Enterococcus sp.) | MIC Streptococcus agalactiae (GC 4564) (Streptococcus sp.; [11]) | MIC Streptococcus pneumoniae (ATCC 6301) (Streptococcus sp.; [12]) | MIC Streptococcus pneumoniae (GC 1894) (Streptococcus sp.; [13]) | MIC Streptococcus pyogenes (GC 4563) (Streptococcus sp.; [15]) | MIC Streptococcus agalactiae (GC 4564) (Streptococcus sp.) | MIC Streptococcus pneumoniae (ATCC 6301) (Streptococcus sp.) | MIC Streptococcus pneumoniae (GC 1894) (Streptococcus sp.) | MIC Streptococcus pyogenes (GC 4563) (Streptococcus sp.)
64 µg/mL: MIC Escherichia coli (ATCC 25922) (Escherichia coli) | MIC Escherichia coli (GC 4559) (Escherichia coli) | MIC Enterococcus faecalis (ATCC 29212) (Enterococcus sp.; [3]) | MIC Enterococcus faecalis (GC 4554) (Enterococcus sp.; [9]) | MIC Enterococcus faecalis (ATCC 29212) (Enterococcus sp.) | MIC Enterococcus faecalis (GC 4554) (Enterococcus sp.)
32 µg/mL: MIC Enterococcus avium (GC 4558) (Enterococcus sp.; Enterococcus avium (GC 4558)) | MIC Enterococcus faecalis (GC 2242) (Enterococcus sp.; [4]) | MIC Enterococcus faecalis (GC 2691) (Enterococcus sp.; [5]) | MIC Enterococcus faecalis (GC 3059) (Enterococcus sp.; [6]) | MIC Enterococcus faecalis (GC 4552) (Enterococcus sp.; [7]) | MIC Enterococcus faecalis (GC 6189) (Enterococcus sp.; [10]) | MIC Enterococcus faecium (GC 4556) (Enterococcus sp.; Enterococcus faecium (GC 4556)) | MIC Enterococcus avium (GC 4558) (Enterococcus sp.) | MIC Enterococcus faecalis (GC 2242) (Enterococcus sp.) | MIC Enterococcus faecalis (GC 2691) (Enterococcus sp.) | MIC Enterococcus faecalis (GC 3059) (Enterococcus sp.) | MIC Enterococcus faecalis (GC 4552) (Enterococcus sp.) | MIC Enterococcus faecalis (GC 6189) (Enterococcus sp.) | MIC Enterococcus faecium (GC 4556) (Enterococcus sp.)
>4: median effective dose (ED50), Staphylococcus aureus-SMITH (GC 4543) [1]
